Measured values published in PubChem BioAssay AID1963424 (Molecular Pharmacology Branch, DTP, NCI, 2024).
Where “and” joins values, the source holds several entries; their conditions need not be identical. Equal values may be shown once.

Test system: 327498-153-R-J2-PDC complex spheroid growth, % test/control
Assay: Anticancer human tumor 327498-153-R-J2-PDC patient-derived uterine carcinosarcoma cell line growth inhibition [Asc]
Settings: for viability, T/C: stronger effect = lower value
In short: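 Concentration series start at each agent's clinical Cmax, or at 10 microM when none is established, and drop in half-log steps; agents are applied alone or together to complex spheroids built with HUVEC and hMSC.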

[1] = curve of first compound, second compound 0.1 µM
[2] = curve of first compound, second compound 0.316 µM
[3] = curve of first compound, second compound 1 µM
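Note: spheroids exposed to compound for 7 days after 3 days of growth.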
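Throughout, for viability, T/C: 100% = DMSO vehicle control wells.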

SMILES: CCN1C(C(=O)NC23CCC(C(=O)O)(CC2)CC3)C(c2cccc(Cl)c2F)C2(C(=O)Nc3cc(Cl)ccc32)C12CCCCC2 (configuration not stated) + Cc1c(S(C)(=O)=O)c(-c2cc(F)cc(N3CCN(c4ccc(NS(=O)(=O)c5ccc(NC(CCN6CCC(C(=O)OCCCP(=O)(O)O)CC6)CSc6ccccc6)c(S(=O)(=O)C(F)(F)F)c5)cc4)CC3)c2)c(-c2ccc(Cl)cc2)n1C(C)C
- IC50 [1]: 147 nM
- IC50 [2]: 136 nM
- IC50 [3]: 106 nM
- IC50 (curve of first compound, second compound 3.16 µM): 122 nM
- IC50 (curve of first compound, second compound 10 µM): 172 nM
- viability, T/C (second compound 0.1 µM, first compound 0.00949 µM): 92.5%
- viability, T/C (second compound 0.1 µM, first compound 0.03 µM): 84.5%
- viability, T/C (second compound 0.1 µM, first compound 0.0949 µM): 64.8%
- viability, T/C (second compound 0.1 µM, first compound 0.3 µM): 26.6%
- viability, T/C (second compound 0.1 µM, first compound 0.949 µM): 6.43%
- viability, T/C (second compound 0.1 µM, first compound 3 µM): 2%
- viability, T/C (second compound 0.316 µM, first compound 0.00949 µM): 87.4%
- viability, T/C (second compound 0.316 µM, first compound 0.03 µM): 89%
- viability, T/C (second compound 0.316 µM, first compound 0.0949 µM): 64.4%
- viability, T/C (second compound 0.316 µM, first compound 0.3 µM): 17%
- viability, T/C (second compound 0.316 µM, first compound 0.949 µM): 8.41%
- viability, T/C (second compound 0.316 µM, first compound 3 µM): 2.1%
- viability, T/C (second compound 1 µM, first compound 0.00949 µM): 91.4%
- viability, T/C (second compound 1 µM, first compound 0.03 µM): 94.5%
- viability, T/C (second compound 1 µM, first compound 0.0949 µM): 50.6%
- viability, T/C (second compound 1 µM, first compound 0.3 µM): 17.8%
- viability, T/C (second compound 1 µM, first compound 0.949 µM): 4.84%
- viability, T/C (second compound 1 µM, first compound 3 µM): 1.36%
- viability, T/C (second compound 3.16 µM, first compound 0.00949 µM): 78.9%
- viability, T/C (second compound 3.16 µM, first compound 0.03 µM): 79%
- viability, T/C (second compound 3.16 µM, first compound 0.0949 µM): 56.1%
- viability, T/C (second compound 3.16 µM, first compound 0.3 µM): 23.8%
- viability, T/C (second compound 3.16 µM, first compound 0.949 µM): 6.76%
- viability, T/C (second compound 3.16 µM, first compound 3 µM): 1.6%
- viability, T/C (second compound 10 µM, first compound 0.00949 µM): 166%
- viability, T/C (second compound 10 µM, first compound 0.03 µM): 162%
- viability, T/C (second compound 10 µM, first compound 0.0949 µM): 80.9%
- viability, T/C (second compound 10 µM, first compound 0.3 µM): 23.5%
- viability, T/C (second compound 10 µM, first compound 0.949 µM): 9.14%
- viability, T/C (second compound 10 µM, first compound 3 µM): 1.51%

SMILES: NC1CCC(NC2CC2c2ccccc2)CC1 (configuration not stated) + CNC(C)C(=O)NC1CN(S(=O)(=O)c2cccc(S(=O)(=O)N3CCC4CCC(C(=O)NC(c5ccccc5)c5ccccc5)N4C(=O)C(NC(=O)C(C)NC)C3)c2)CCC2CCC(C(=O)NC(c3ccccc3)c3ccccc3)N2C1=O
- IC50 (curve of first compound, second compound 0.01 µM): > 100 nM
- IC50 (curve of first compound, second compound 0.0316 µM): > 100 nM
- IC50 [1]: > 100 nM
- IC50 [2]: > 100 nM
- IC50 [3]: > 100 nM
- viability, T/C (second compound 0.01 µM, first compound 0.000316 µM): 103%
- viability, T/C (second compound 0.01 µM, first compound 0.001 µM): 106%
- viability, T/C (second compound 0.01 µM, first compound 0.00316 µM): 92.3%
- viability, T/C (second compound 0.01 µM, first compound 0.01 µM): 97.6%
- viability, T/C (second compound 0.01 µM, first compound 0.0316 µM): 99.4%
- viability, T/C (second compound 0.01 µM, first compound 0.1 µM): 96%
- viability, T/C (second compound 0.0316 µM, first compound 0.000316 µM): 104%
- viability, T/C (second compound 0.0316 µM, first compound 0.001 µM): 104%
- viability, T/C (second compound 0.0316 µM, first compound 0.00316 µM): 101%
- viability, T/C (second compound 0.0316 µM, first compound 0.01 µM): 100%
- viability, T/C (second compound 0.0316 µM, first compound 0.0316 µM): 99.9%
- viability, T/C (second compound 0.0316 µM, first compound 0.1 µM): 101%
- viability, T/C (second compound 0.1 µM, first compound 0.000316 µM): 100%
- viability, T/C (second compound 0.1 µM, first compound 0.001 µM): 101%
- viability, T/C (second compound 0.1 µM, first compound 0.00316 µM): 100%
- viability, T/C (second compound 0.1 µM, first compound 0.01 µM): 104%
- viability, T/C (second compound 0.1 µM, first compound 0.0316 µM): 108%
- viability, T/C (second compound 0.1 µM, first compound 0.1 µM): 98.9%
- viability, T/C (second compound 0.316 µM, first compound 0.000316 µM): 101%
- viability, T/C (second compound 0.316 µM, first compound 0.001 µM): 107%
- viability, T/C (second compound 0.316 µM, first compound 0.00316 µM): 106%
- viability, T/C (second compound 0.316 µM, first compound 0.01 µM): 98.5%
- viability, T/C (second compound 0.316 µM, first compound 0.0316 µM): 96.8%
- viability, T/C (second compound 0.316 µM, first compound 0.1 µM): 100%
- viability, T/C (second compound 1 µM, first compound 0.000316 µM): 106%
- viability, T/C (second compound 1 µM, first compound 0.001 µM): 113%
- viability, T/C (second compound 1 µM, first compound 0.00316 µM): 108%
- viability, T/C (second compound 1 µM, first compound 0.01 µM): 105%
- viability, T/C (second compound 1 µM, first compound 0.0316 µM): 94.7%
- viability, T/C (second compound 1 µM, first compound 0.1 µM): 97.8%

SMILES: C#Cc1c(F)ccc2cc(O)cc(-c3ncc4c(N5CC6CCC(C5)N6)nc(OCC56CCCN5CC(F)C6)nc4c3F)c12 (configuration not stated)
- viability, T/C (compound 0.0316 µM): 108% and 96.6% and 89.6%
- viability, T/C (compound 0.1 µM): 101% and 100% and 94%
- viability, T/C (compound 0.316 µM): 101% and 82.7% and 90.7%
- viability, T/C (compound 1 µM): 82.9% and 72.4% and 78.3%
- viability, T/C (compound 3.16 µM): 69.9% and 64.9% and 68.1%
- viability, T/C (compound 10 µM): 58% and 47.4% and 53.3%
- IC50 (curve of compound): > 10000 nM and 8780 nM

SMILES: O=C(c1ccc(F)c(F)c1Nc1ccc(I)cc1F)N1CC(O)([C@@H]2CCCCN2)C1 + CCN1C(C(=O)NC23CCC(C(=O)O)(CC2)CC3)C(c2cccc(Cl)c2F)C2(C(=O)Nc3cc(Cl)ccc32)C12CCCCC2
- IC50 (curve of first compound, second compound 0.03 µM): 227 nM
- IC50 (curve of first compound, second compound 0.0949 µM): 47.8 nM
- IC50 (curve of first compound, second compound 0.3 µM): < 3.16 nM
- IC50 (curve of first compound, second compound 0.949 µM): < 3.16 nM
- IC50 (curve of first compound, second compound 3 µM): < 3.16 nM
- viability, T/C (second compound 0.03 µM, first compound 0.00316 µM): 98.2%
- viability, T/C (second compound 0.03 µM, first compound 0.01 µM): 85%
- viability, T/C (second compound 0.03 µM, first compound 0.0316 µM): 70.5%
- viability, T/C (second compound 0.03 µM, first compound 0.1 µM): 64.5%
- viability, T/C (second compound 0.03 µM, first compound 0.316 µM): 50.3%
- viability, T/C (second compound 0.03 µM, first compound 1 µM): 16%
- viability, T/C (second compound 0.0949 µM, first compound 0.00316 µM): 67%
- viability, T/C (second compound 0.0949 µM, first compound 0.01 µM): 61.4%
- viability, T/C (second compound 0.0949 µM, first compound 0.0316 µM): 55.3%
- viability, T/C (second compound 0.0949 µM, first compound 0.1 µM): 41.3%
- viability, T/C (second compound 0.0949 µM, first compound 0.316 µM): 28.4%
- viability, T/C (second compound 0.0949 µM, first compound 1 µM): 8.51%
- viability, T/C (second compound 0.3 µM, first compound 0.00316 µM): 37.2%
- viability, T/C (second compound 0.3 µM, first compound 0.01 µM): 29.1%
- viability, T/C (second compound 0.3 µM, first compound 0.0316 µM): 17.3%
- viability, T/C (second compound 0.3 µM, first compound 0.1 µM): 15.7%
- viability, T/C (second compound 0.3 µM, first compound 0.316 µM): 11.1%
- viability, T/C (second compound 0.3 µM, first compound 1 µM): 3.71%
- viability, T/C (second compound 0.949 µM, first compound 0.00316 µM): 8.99%
- viability, T/C (second compound 0.949 µM, first compound 0.01 µM): 6.26%
- viability, T/C (second compound 0.949 µM, first compound 0.0316 µM): 4.91%
- viability, T/C (second compound 0.949 µM, first compound 0.1 µM): 4.3%
- viability, T/C (second compound 0.949 µM, first compound 0.316 µM): 2.73%
- viability, T/C (second compound 0.949 µM, first compound 1 µM): 1.43%
- viability, T/C (second compound 3 µM, first compound 0.00316 µM): 3.41%
- viability, T/C (second compound 3 µM, first compound 0.01 µM): 1.87%
- viability, T/C (second compound 3 µM, first compound 0.0316 µM): 2.1%
- viability, T/C (second compound 3 µM, first compound 0.1 µM): 1.08%
- viability, T/C (second compound 3 µM, first compound 0.316 µM): 1.35%
- viability, T/C (second compound 3 µM, first compound 1 µM): 0.86%
